Test results reported in patent publication US12624018B1, “Inhibitors of RIPK2 and medical uses thereof” (Odyssey Therapeutics, Inc., priority 2022, dated 2026).
Like-named read-outs stand apart in the source and are kept apart here.

Tests used:
RIPK2 enzyme = biological target: T1, RIPK2 enzyme (Homo sapiens, UniProt O43353); assay: RIPK2 inhibition (ADP-Glo Kinase Assay); assay type: biochemical; details: RIPK2 5 nM, ATP 150 μM, MBP substrate, read-out: RIPK2 IC50
T1 construct: purchased Carna 09-128
T1 sequence (O43353 1-299 limits assumed): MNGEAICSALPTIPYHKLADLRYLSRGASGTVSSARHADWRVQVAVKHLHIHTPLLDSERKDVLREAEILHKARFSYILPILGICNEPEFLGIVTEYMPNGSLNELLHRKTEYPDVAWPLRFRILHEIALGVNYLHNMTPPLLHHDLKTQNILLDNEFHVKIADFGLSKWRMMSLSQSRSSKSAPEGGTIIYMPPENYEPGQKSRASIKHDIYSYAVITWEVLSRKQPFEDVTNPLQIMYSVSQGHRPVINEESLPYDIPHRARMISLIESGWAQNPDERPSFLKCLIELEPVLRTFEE
Outline: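 Swine MBP substrate; compound and 5 nM RIPK2 first mixed for 30 min at room temperature; buffer pH 7.5 HEPES 50 mM with 10 mM MgCl2, 2 mM DTT, 1 mM EGTA, Brij-35, BSA.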

human NOD2 signaling = assay: Inhibition of human NOD2 signaling in HEK-Blue-hNOD2 cells (L18-MDP stimulated, SEAP reporter); assay type: cell-based
Outline: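 Read-out is SEAP absorbance at 620 nm after 3 h QUANTI-Blue development of supernatant from HEK293 cells carrying NOD2 and a SEAP reporter (12500/well). Cells got compound (10 points, 3-fold dilutions) and 0.5 ng/mL L18-MDP for 24 h at 37 °C; percent inhibition vs stimulated/unstimulated controls, 4-parameter IC50.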

[1] = biological target: T2, RIPK2 and XIAP protein-protein interaction (Homo sapiens, UniProt O43353); assay: Inhibition of the interaction of RIPK2 with XIAP (NanoBRET in HEK293T cells); assay type: cell-based; details: for IC50: RIPK2 HaloTag / XIAP NanoLuc, read-out: NanoBRET Scaffolding IC50
T2 construct: the N-terminus of full-length RIPK2 was appended with the HaloTag fusion protein; expressed in transfected cells; host or cells: HEK293T
T2 sequence (O43353 whole entry, the tested form may be a part): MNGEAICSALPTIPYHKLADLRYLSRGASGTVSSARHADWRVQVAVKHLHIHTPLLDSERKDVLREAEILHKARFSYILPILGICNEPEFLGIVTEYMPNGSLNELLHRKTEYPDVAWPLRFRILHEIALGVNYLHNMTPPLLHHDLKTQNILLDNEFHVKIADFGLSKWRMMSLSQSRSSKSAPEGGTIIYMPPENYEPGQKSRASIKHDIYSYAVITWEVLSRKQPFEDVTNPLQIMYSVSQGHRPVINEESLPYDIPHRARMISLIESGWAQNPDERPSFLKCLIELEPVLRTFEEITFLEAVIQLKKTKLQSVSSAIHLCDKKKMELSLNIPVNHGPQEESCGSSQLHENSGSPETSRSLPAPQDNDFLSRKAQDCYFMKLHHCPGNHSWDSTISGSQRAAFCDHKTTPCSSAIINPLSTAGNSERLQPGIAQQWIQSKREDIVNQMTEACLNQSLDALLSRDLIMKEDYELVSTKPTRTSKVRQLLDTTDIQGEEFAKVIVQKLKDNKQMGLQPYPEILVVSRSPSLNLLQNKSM
Description: An assay measuring the RIPK2 and XIAP protein-protein interaction was generated using the NanoBRET protein:protein interaction system (Promega) which measures the energy transfer from a bioluminescent protein donor (NanoLuc fusion protein) to a fluorescent protein acceptor (Halotag fusion protein). In this assay, the C-terminus of full-length XIAP was appended with the NanoLuc fusion protein and the N-terminus of full-length RIPK2 was appended with the HaloTag fusion protein. Assay medium consisted of Opti-MEM I reduced serum medium with no phenol red plus 4% heat inactivated FBS. Transfection reagents were combined in a microfuge tube as follows: 400 μL of assay medium, 8 μL of vector with N-terminus of RIPK2 HaloTag fusion protein (vector concentration at 1 μg/μL), 0.8 μL of vector with C-terminus of XIAP NanoLuc fusion protein (vector concentration at 1 μg/μL), and 24 μL of FuGENE HD transfection reagent (Promega, catalogue number E2312). […] Test compounds were prepared into a 10 mM DMSO solution and were serially diluted into 10 points using a 3-fold dilution in a 384 well plate using a TECAN EV0200.
Method: HEK293T cells were transfected with the RIPK2 HaloTag fusion and XIAP NanoLuc fusion vectors in suspension. […] Transfection reagents were pre-mixed and incubated at room temperature for 30 minutes. Then the total transfection reagent mixture was added dropwise to the 16 mL cell suspension and mixed gently. 40 μL of the cells and transfection reagent suspension was plated into a white 384 well plate and incubated at 37° C. in a CO2 incubator for 24 hours. […] Lastly, a 3× solution of NanoBRET Nano-Glo substrate in Opti-MEM I reduced serum media (no phenol red; 20 μL total volume) was added to each well and incubated for 2-3 minutes at room temperature. The plate was then measured using 460 nm filter (donor emission) and 618 nm filter (acceptor emission) in an EnVision multimode plate reader (PerkinElmer). The NanoBRET ratio values were determined by dividing the acceptor emission value by the donor emission value for each sample.

[2] = Homo sapiens, HEK-Blue hNOD2, HEK-Blue-hNOD2 cells, NOD2 ligand stimulation, SEAP reporter, read-out: hNOD2 IC50
[3] = HEK-Blue-hNOD2 cells, NOD2 ligand stimulation, SEAP reporter, read-out: hNOD2 IC50

SMILES	IC50 (RIPK2 enzyme)	IC50 (human NOD2 signaling; [2])	IC50 [1]	IC50 (human NOD2 signaling; [3])	IC50 (human NOD2 signaling; Homo sapiens, HEK-Blue hNOD2, 24 h, HEK-Blue-hNOD2 cells, L18-MDP 0.5 ng/mL, 24 h, read-out: hNOD2 inhibition IC50)	inhibition of the RIPK2 and XIAP protein-protein interaction ([1]; NanoBRET)
CNC(=O)c1ccc2nccc(Oc3cc(F)c(CC(=O)Nc4cnn(C56CC(C5)C6)c4)cc3Cl)c2c1 [Compound 510, 4-(4-(2-((1-(bicyclo[1.1.1]pentan-1-yl)-1H-pyrazol-4-yl)amino)-2-oxoethyl)-2-chloro-5-fluorophenoxy)-N-methylquinoline-6-carboxamide]	< 2.5 nM	8.4 nM	172 nM			
Cc1cc(CC(=O)Nc2cnn(C(C)(C)C)c2)ccc1Oc1ccnc2ccc(S(=N)(=O)C3CCC3)cc12 (single isomer, unassigned) [Compound 552, N-(1-(tert-butyl)-1H-pyrazol-4-yl)-2-(4-((6-(cyclobutane-sulfonimidoyl)quinolin-4-yl)oxy)-3-methylphenyl) acetamide]	< 2.5 nM		60.9 nM	1.7 nM		
[2H]C([2H])([2H])NC(=O)c1cc2c(Oc3cc(F)c(CC(=O)Nc4cnn(C(C)(C)C)c4)cc3C)ccnc2cc1F [Compound 494, 4-(4-(2-((1-(tert-butyl)-1H-pyrazol-4-yl)amino)-2-oxoethyl)-5-fluoro-2-methylphenoxy)-7-fluoro-N-(methyl-d3)quinoline-6-carboxamide]	< 2.5 nM	0.4 nM	20.5 nM			
Cc1cc(CC(=O)Nc2cnn(C34CC(C3)C4)c2)ccc1Oc1ccnc2ccc(C(N)=O)cc12 [Compound 499, 4-(4-(2-((1-(bicyclo[1.1.1]pentan-1-yl)-1H-pyrazol-4-yl)amino)-2-oxoethyl)-2-methylphenoxy)quinoline-6-carboxamide]	< 2.5 nM	1.1 nM	21.9 nM			
CC(C)(C)n1cc(NC(=O)Cc2cc(Cl)c(Oc3ccnc4ccc(S(=O)(=O)C5CC5)cc34)cc2F)cn1 [Compound 464, N-(1-(tert-butyl)-1H-pyrazol-4-yl)-2-(5-chloro-4-((6-(cyclopropylsulfonyl)quinolin-4-yl)oxy)-2-fluorophenyl)acetamide]	< 2.5 nM	0.5 nM	7.5 nM			
CC(C)(C)S(=O)(=O)c1cc2c(Nc3ccc4scnc4c3)ncnc2cc1OCCOP(=O)(O)O [GSK 2983559, reference compound]					> 10000 nM	no inhibition
Cc1cc(CC(=O)Nc2cnn(C(C)(C)C)c2)c(F)cc1Oc1ccnc2ccc(-c3ccnnc3C)cc12 [Compound 525, N-(1-(tert-butyl)-1H-pyrazol-4-yl)-2-(2-fluoro-5-methyl-4-((6-(3-methylpyridazin-4-yl)quinolin-4-yl)oxy)phenyl)acetamide]	< 2.5 nM	5.5 nM				
Cc1cc(CC(=O)Nc2cnn(C(C)(C)C)c2)ccc1Oc1ccnc2ccc(S(=N)(=O)C(C)(C)C)cc12 (single isomer, unassigned) [Compound 549, N-(1-(tert-butyl)-1H-pyrazol-4-yl)-2-(3-methyl-4-((6-(2-methylpropan-2-ylsulfonimidoyl)quinolin-4-yl)oxy)phenyl) acetamide]	< 2.5 nM	18.2 nM				

The remaining lines, values ahead:

IC50 (RIPK2 enzyme)	IC50 (human NOD2 signaling; [2])	IC50 [1]	IC50 (human NOD2 signaling; [3])	IC50 (human NOD2 signaling; Homo sapiens, HEK-Blue hNOD2, 24 h, HEK-Blue-hNOD2 cells, L18-MDP 0.5 ng/mL, 24 h, read-out: hNOD2 inhibition IC50)	inhibition of the RIPK2 and XIAP protein-protein interaction ([1]; NanoBRET)	SMILES
< 2.5 nM	0.3 nM	4.6 nM				Cc1nnc(-c2ccc3nccc(Oc4cc(F)c(CC(=O)Nc5cnn(C(C)(C)C)c5)cc4C)c3c2)o1 [Compound 482, N-(1-(tert-butyl)-1H-pyrazol-4-yl)-2-(2-fluoro-5-methyl-4-((6-(5-methyl-1,3,4-oxadiazol-2-yl)quinolin-4-yl)oxy)phenyl)acetamide]
< 2.5 nM	2.5 nM	48 nM				Cc1cc(CC(=O)Nc2cnn(C(C)(C)C)c2)c(F)cc1Oc1ccnc2ccc(S(=N)(=O)C3CC3)cc12 (single isomer, unassigned) [Compound 466, N-(1-(tert-butyl)-1H-pyrazol-4-yl)-2-(4-((6-(cyclopropane-sulfonimidoyl)quinolin-4-yl)oxy)-2-fluoro-5-methylphenyl) acetamide]
< 2.5 nM	1.4 nM	170 nM				CNC(=O)c1ccc2nccc(Oc3c(C)cc(CC(=O)Nc4cnn(C(C)(C)C)c4)cc3Cl)c2c1 [Compound 515, 4-(4-(2-((1-(tert-butyl)-1H-pyrazol-4-yl)amino)-2-oxoethyl)-2-chloro-6-methylphenoxy)-N-methylquinoline-6-carboxamide]
< 2.5 nM	14.2 nM	189 nM				NC(=O)c1ccc2nccc(Oc3cc(F)c(CC(=O)Nc4cnn(C56CC(C5)C6)c4)cc3Cl)c2c1 [Compound 509, 4-(4-(2-((1-(bicyclo[1.1.1]pentan-1-yl)-1H-pyrazol-4-yl)amino)-2-oxoethyl)-2-chloro-5-fluorophenoxy)quinoline-6-carboxamide]
< 2.5 nM	1.7 nM	87.1 nM				Cc1cc(CC(=O)Nc2cnn(C(C)(C)C)c2)ccc1Oc1ccnc2ccc(S(=N)(=O)C3CCC3)cc12 (single isomer, unassigned) [Compound 551, N-(1-(tert-butyl)-1H-pyrazol-4-yl)-2-(4-((6-(cyclobutanesulf-onimidoyl)quinolin-4-yl)oxy)-3-methylphenyl) acetamide]
< 2.5 nM	1.6 nM	6.6 nM				CNC(=O)c1ccc2nccc(Oc3c(C)cc(CC(=O)Nc4cnn(C(C)(C)C)c4)cc3F)c2c1 [Compound 469, 4-(4-(2-((1-(tert-butyl)-1H-pyrazol-4-yl)amino)-2-oxoethyl)-2-fluoro-6-methylphenoxy)-N-methylquinoline-6-carboxamide]
< 2.5 nM		30.2 nM	1.7 nM			Cc1cc(CC(=O)Nc2cnn(C(C)(C)C)c2)c(F)cc1Oc1ccnc2ccc(S(=N)(=O)C3CC3)cc12 (single isomer, unassigned) [Compound 467, N-(1-(tert-butyl)-1H-pyrazol-4-yl)-2-(4-((6-(cyclopropane-sulfonimidoyl)quinolin-4-yl)oxy)-2-fluoro-5-methylphenyl) acetamide]
< 2.5 nM	5.4 nM	38.7 nM				Cc1cc(CC(=O)Nc2cnn(C(C)(C)C)c2)c(F)cc1Oc1ccnc2ccc(-c3ncncc3C)cc12 [Compound 477, N-(1-(tert-butyl)-1H-pyrazol-4-yl)-2-(2-fluoro-5-methyl-4-((6-(5-methylpyrimidin-4-yl)quinolin-4-yl)oxy)phenyl)acetamide]
8.1 nM	95.6 nM	621 nM				Cc1cc(CC(=O)Nc2cnn(C(C)(C)C)c2)c(Cl)cc1Oc1ccnc2ccc(S(C)(=O)=O)cc12 [Compound 474, N-(1-(tert-butyl)-1H-pyrazol-4-yl)-2-(2-chloro-5-methyl-4-((6-(methylsulfonyl)quinolin-4-yl)oxy)phenyl)acetamide]
< 2.5 nM	46.7 nM					CNC(=O)c1ccc2nccc(Oc3c(C)cc(CC(=O)Nc4cnn(C56CC(C5)C6)c4)cc3Cl)c2c1 [Compound 591, 4-(4-(2-((1-(bicyclo[1.1.1]pentan-1-yl)-1H-pyrazol-4-yl)amino)-2-oxoethyl)-2-chloro-6-methylphenoxy)-N-methylquinoline-6-carboxamide]
< 2.5 nM	2 nM					[2H]C([2H])([2H])C(n1cc(NC(=O)Cc2cc(C)c(Oc3ccnc4ccc(C(=O)NC)cc34)cc2F)cn1)(C([2H])([2H])[2H])C([2H])([2H])[2H] [Compound 622, 4-(5-fluoro-2-methyl-4-(2-((1-(2-(methyl-d3)propan-2-yl-1,1,1,3,3,3-d6)-1H-pyrazol-4-yl)amino)-2-oxoethyl)phenoxy)-N-methylquinoline-6-carboxamide]
< 2.5 nM	15.6 nM					Cc1cc(CC(=O)Nc2cnn(C(C)(C)C)c2)ccc1Oc1ccnc2ccc(C3(S(C)(=O)=O)CC3)cc12 [Compound 605, N-(1-(tert-butyl)-1H-pyrazol-4-yl)-2-(3-methyl-4-((6-(1-(methylsulfonyl)cyclopropyl)quinolin-4-yl)oxy)phenyl)acetamide]
